The values that follow come from patent US20130303479A1, “Antiretroviral Cyclonucleoside Compositions and Methods and Articles of Title of Invention Manufacture Therewith” (priority 2011, published 2013).

For data set [1] the following is noted: in vivo; cited from earlier work.
The test system of data set [2] is vsv-g pseudotyped HIV-1 virus. It counts as cell-based.
Data set [3] addresses T1, reverse transcriptase (RT) (Human immunodeficiency virus type 1 group M subtype B, UniProt P03366).
T1 construct: Results of the Roche reverse transcriptase (AT) assay kit; purchased Roche
As to the kind of experiment: Roche reverse transcriptase assay kit. It counts as biochemical. The conditions noted are these: indicated amounts. How it is done:
Results of the Roche reverse transcriptase […] assay kit utilizing the indicated amounts of NSC166641. RT activity was measured as a percentage compared to the positive control. […] (See FIG. 9).

The target of another data set is Human recombinant dCK (Homo sapiens, UniProt P27707). As to the kind of experiment: dCK inhibition curve with deoxyinosine as substrate. It counts as biochemical. The conditions noted are these: deoxyinosine (dIR) substrate, duplicate. How it is done:
Inhibiting the activity of the dCK enzyme is useful. […] Human recombinant dCK activity was characterized using deoxyinosine (dIR) as a substrate. Assays were performed in duplicate in 200 μL of reaction mixture (96-well plate). Reactions were started by adding dIR at various concentrations and the percent inhibition was determined as compared to the positive control via spectrophotometer. […] (See FIG. 35).

For another data set, the system named is HIV-1 (wt). Put plainly: Inhibition of HIV replication in primary peripheral blood mononuclear cells (p24 ELISA). Conditions: Human immunodeficiency virus 1, PBMC, read-out: EC50, inhibition of HIV replication. It counts as cell-based. The procedure: Human peripheral blood mononuclear cells (PBMCs) purified from donors were cultured (RPMI+10% FBS) and stimulated pre-infection (24 hrs) and every 3 days for three weeks with 2 ng/ml of phytoheaemagglutinin (PHA) and 1 U/ml IL-2. 24 hours following the initial stimulation the samples were incubated for one hour with the indicated amounts of NSC166641 and then infected with 300 ng HIV-1 (wt). Samples were analyzed via ELISA p24. (See FIG. 7).
A general note: An ELISA detects its analyte on a solid surface through an enzyme-linked reagent.

For data set [4], the system named is vsv-g pseudotyped HIV-1 virus. It counts as cell-based. This is another data set of the same source.
For data set [5], the system named is HIV. Put plainly: Inhibition of HIV replication in experimental T cell cancer lines. It counts as cell-based.
Data set [6] has as its system HIV. As to the kind of experiment: EC50 stated in embodiments, test not specified. It counts as cell-based.
The test system of a further data set is cells. Conditions: cited from earlier work.
For a further data set, the system named is HIV-1 (wt) virus. It counts as cell-based. The procedure:
G11 HIV reporter cells (200K) were seeded in 5 ml falcon tubes (RPMI+10% FBS) and incubated with the indicated amounts of NSC129220 (CAS 10212-28-9) for one hour before infection with HIV-1 (wt) virus (250 ng). Samples were stained with propidium iodide and analyzed for GFP expression via flow cytometer at 48 and 72 hours post infection. (See FIG. 2).
Example FACS dot plots of live G11 cells expressing HIV induced expression of GFP. […] (See FIG. 27).

The structures appear in SMILES notation. Entries after “also recorded” stand apart in the source; their conditions may differ.

Human recombinant dCK, sequence (P27707 whole entry): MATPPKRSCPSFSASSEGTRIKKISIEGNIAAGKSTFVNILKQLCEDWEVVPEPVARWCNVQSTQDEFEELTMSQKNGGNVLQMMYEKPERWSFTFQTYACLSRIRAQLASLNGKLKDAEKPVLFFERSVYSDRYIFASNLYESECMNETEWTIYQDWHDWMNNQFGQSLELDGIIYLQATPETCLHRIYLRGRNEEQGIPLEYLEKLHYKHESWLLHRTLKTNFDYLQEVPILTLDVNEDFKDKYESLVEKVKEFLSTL

As for `N=c1nc2n(cc1F)[C@@H]1O[C@H](CO)[C@@H](O)[C@@H]1O2` [AAFC, 5-fluoro-2,2′cyclocytidine], in data set [1], the “fraction of reagent passed through the body unchanged” value was “over 80%” and the “phosphorylation compared to Ara-C” value is listed as “less easily phosphorylated as compared to Ara-C”. Moreover, in data set [2], the “dose dependent effect on Clone 64 cells” value is “dose dependent effect”, the “dose-dependent activity (luciferase)” value was “Dose-dependent activity was detected” and the “lowest dose at which anti-HIV activity was seen” value (from here on “lowest dose”) amounted to 40 µM. Also, the “inhibition of RT activity vs positive control” value in data set [3] was “little or no inhibition of RT”. For the same compound, on Human recombinant dCK, the IC50 – broadly, the midpoint of a concentration-inhibition curve – is 32000 nM. Further, the EC50 (commonly the concentration needed to bring the measured effect to its halfway point) in the data set on HIV-1 (wt) was < 0.7 nM. In addition, in [4], the “rescue of luciferase expression by dC, dT or both” value is given as “addition of dC but not dT may be able to rescue luciferase expression in treated cells” and the “rescue of luciferase expression by deoxycytidine” value was “Addition of dC appears to be able to rescue luciferase expression in treated cells; also recorded: Addition of dC is able to rescue luciferase expression in treated cells”. Besides, the EC50 in the data set with HIV [5] (Human immunodeficiency virus 1, read-out: EC50, inhibition of HIV replication, experimental T cell cancer lines) was < 500 nM. The “concentration directly inhibiting HIV replication in vitro” value with HIV [5] (a number of experimental cell lines and primary cells) is recorded as < 500 nM. For the same compound, the “inhibition of HIV replication on post infection treatment” value in the data set with HIV [5] (post exposure of cells infected with HIV-1, experimental cell lines) is given as “dramatically inhibit HIV replication”. For the same compound, in the data set on HIV [6] (Human immunodeficiency virus 1, another aspect of embodiments, read-out: EC50), the EC50 was ~10 nM. In addition, the EC50 with HIV [6] (Human immunodeficiency virus 1, one aspect of embodiments) was ~0.7 nM. Also, in the data set on cells, the “reversal of cell growth inhibition by nucleosides” value was “reversed by deoxycytidine but not by thymidine and deoxyuridine”; the thymidine incorporation entry is recorded as “inhibited thymidine incorporation into the acid-soluble fraction (DNA) of the cells”.

In the case of `Cc1cn([C@H]2C[C@H](N=[N+]=[N-])[C@@H](CO)O2)c(=O)[nH]c1=O` [AZT, zidovudine], in data set [2], the “dose dependent effect on Clone 64 cells” value is on record as “dose dependent effect”.

On to `O=C(O)c1ccccc1` [Benzoic acid], for which the “anti-HIV activity in screen (luciferase expression)” value (“anti-HIV activity in screen” below) in data set [2] was “Activity was not detected”.

With `CC(=O)O.N=c1ccn2c(n1)OC1C(O)C(CO)OC12` (centres unmarked) [NSC129220, O2,2′-cyclocytidine monoacetate], in data set [2], the “dose-dependent activity (luciferase)” value is on record as “Dose-dependent activity was detected” and the “lowest dose” value was 40 µM. For the same compound, the “rescue of luciferase expression by deoxycytidine” value in data set [4] was “Addition of dC is able to rescue luciferase expression in treated cells”. Moreover, the cell viability (commonly a read-out of living cells in per cent, often relative to untreated cells) in the data set on HIV-1 (wt) virus (FACS GFP assay, treated reporter cells (FIG. 27)) is on record as > 60%. Further, the “inhibition of HIV induced GFP expression (confirmation of screen)” value with HIV-1 (wt) virus (live G11 cells, FACS dot plots) is recorded as “inhibition of HIV”.

Turning to `Cl.N=c1ccn2c(n1)O[C@H]1[C@H](O)[C@@H](CO)O[C@H]12` [O2,2′-cyclocytidine hydrochloride], the “lowest dose” value in data set [2] came to 40 µM.

As for `O=C1CN=C(c2ccc[nH]2)c2cc(Cl)ccc2N1` [benzodiazipen, Benzodiazepen], the “anti-HIV activity in screen” value in [2] is recorded as “Anti-HIV activity was detected”.

`CCOC(N)=O` [ethyl carbamate]: in [2], the “anti-HIV activity in screen” value was “Activity was not detected”.

For the compound `COc1ccc2[nH]c3c(C)c4ccncc4c(C)c3c2c1` [methoxyellipticine, Methoxyellipticine], the “anti-HIV activity in screen” value in [2] was “Anti-HIV activity was detected”.

For `c1ccc2ccccc2c1` [napthalen], in [2], the “anti-HIV activity in screen” value is listed as “Activity was not detected”.
